Experimental data as given in patent US11337975B2, “Pharmaceutical combinations comprising a histone deacetylase inhibitor and a CD38 inhibitor and methods of use thereof” (Acetylon Pharmaceuticals, Inc., priority 2016, dated 2022).

How the values were obtained:
Assay type in all cases: cell-based
[1] = system: H929 multiple myeloma cells; test: Anti-CD38 antibody-dependent cell-mediated cytotoxicity (Calcein-AM) in H929 cells; conditions: 0.5 μM-2 μM for 24 hours
Experimental: Multiple myeloma cells were incubated with Calcein-AM (Invitrogen, 2 μg/ml/1 million cells) for 30 min at 37° C. After washing, the cells were used for target cells. Mononuclear cells were obtained from healthy volunteer peripheral blood by Ficoll-Paque density centrifugation and used for effector cells. Both target and effector cells (E/T=15-20) were incubated for 3-4 h and culture supernatant were subjected to measurement of fluorescence using a 490 nm excitation filter and a 520 emission filter. Percent specific lysis was calculated as follows, % specific lysis=[experiment fluorescence−spontaneous fluorescence (no effector)]/[complete lysis (100% killing by detergent)−spontaneous fluorescence (no effector)]×100 Flow Cytometry-Based Ex Vivo ADCC Assay
Cells were stained with Calcein-AM and incubated with peripheral blood mononuclear cells at a ratio of 20:1 for 3 hours.

[2] = system: MM.1S multiple myeloma cells; test: CD38 surface level by FACS, MM.1S cells; conditions: various doses, 48 hours, FACS (FIG. 1B)
[3] = system: RPMI-8226 multiple myeloma cells; test: CD38 surface level by FACS, RPMI-8226 cells; conditions: various doses, 48 hours, FACS (FIG. 1A)
H929 cells = test: Anti-CD38 ADCC in CFSE-stained H929 cells with PBMCs, flow cytometry; conditions: pomalidomide 0.1 μM, Compound B 0.25, 0.5, 1 μM, 72 h, then anti-CD38 antibody 0.5 μg/ml 3 hours (FIG. 6)
Experimental: The cells were then incubated with an anti-CD38 antibody (0.5 μg/ml) for 3 hours. Cytotoxicity was assessed by flow cytometry.

[4] = system: patient-derived multiple myeloma cells; test: Ex vivo anti-CD38 ADCC in autologous setting, patients' bone marrow aspirates; conditions: anti-CD38 antibody 0.5 μg/ml with or without Compound B 0.5 μM, 72 hours (FIG. 3A)
Experimental: After bone marrow aspiration, fresh bone marrow mononuclear cells (MNC) were obtained by ammonium chloride based-lyses of red cells followed by washing in phosphate-buffered saline (PBS). […] The cells were incubated for 72 h at 37° C. in 5% CO2. The viability of primary MM cells in BM MNC was determined by near infrared (n-IR) viability dyes. The surviving CD138+MM cells were enumerated in the presence of Flow-Count Fluorospheres (Beckman Coulter, CA, USA), to determine absolute numbers of viable MM cells. The percentage of daratumumab-mediated ADCC was then calculated using the following formula: % lysis cells=100−[(absolute number of surviving CD138+ cells in the presence of daratumumab/absolute number of surviving CD138+ cells in the presence of control antibody)×100%]. Phenotypic analyses of MNC were performed using a single 5-color combination of monoclonal antibodies containing CD138-PE/CD38-APC/n-IR-viability (BioLegend, San Diego, Calif., USA). Plasma cells in BM MNC were identified by CD138-PE and CD38-APC staining, and expression of CD38 on plasma cells were determined (BD Biosciences, San Jose, Calif., USA). After incubation, cells were washed twice in PBS containing 2% BSA, and then resuspended in PBS for analysis on a Fortessa cytometer (Becton Dickinson, Mountain View, Calif.). […]
The average cytotoxicity (mean±SD) was calculated from 6 patients' samples (see also FIG. 3B).

Row | Structure (SMILES) | Percent specific lysis ([1]; PBMC 20:1 for 3 hours (FIG. 2A)) | percent augmentation ([1]; PBMC 20:1 for 3 hours (FIG. 2B)) | percentage of CD38 positive cells [2] | percentage of CD38 positive cells [3] | anti-CD38 antibody-induced cytotoxicity (ADCC) (H929 cells) | anti-CD38 antibody dependent cell mediated cytotoxicity [4]
1 | O=C(CCCCCCNC(=O)c1cnc(N(c2ccccc2)c2ccccc2)nc1)NO [Compound A, 2-(diphenylamino)-N-(7-(hydroxyamino)-7-oxoheptyl)pyrimidine-5-carboxamide] | increased as concentration of Compound A increased | increased as concentration of Compound A increased | increased | increased | – | –
2 | O=C(CCCCCCNC(=O)c1cnc(N(c2ccccc2)c2ccccc2Cl)nc1)NO [Compound B, 2-((2-chlorophenyl)(phenyl)amino)-N-(7-(hydroxyamino)-7-oxoheptyl)pyrimidine-5-carboxamide] | – | – | increased | increased | enhanced | increased
